Reference: patent US4774250A, “Composition and method for treating differentiated carcinoma or melanoma cells with thiapyrylium dyes” (Dana Farber Cancer Institute, priority 1987, dated 1988)
Read-outs that look alike come from different tables or passages of the source.

Legend:
[1] = tested on: stomach cancer; conditions: stomach cancer in Japan, Antibiotics Chemother., Vol. 24, pages 149-159 (1978); cited from earlier work
[2] = tested on: CX-1 (human colon carcinoma); test: Clonogenic in vitro study, inhibition of cell colony formation, CX-1; format: cell-based; conditions: for Selectivity / S (selectivity value): CV-1 IC50 divided by CX-1 IC50; for IC50: Homo sapiens, Colon carcinoma cell, read-out: CX-1 (colon carcinoma cells IC50 value); for S (selectivity value): comparative examples
Procedure: This IC50 value is compared for both the CX-1 and CV-1. That is, the CV-1 value is divided by the value for CX-1. If the value is 10 μg/ml for CV-1, and […] for CX-1, then the dye is 10 times as effective in killing off the colon carcinoma cells, compared to the monkey epithelial cells. This is expressed as a selectivity "S" of 10. That is, in order to inhibit 50% of the normal cells, the drug requires ten times the concentration needed for inhibiting 50% of the cancer cells.

[3] = tested on: CV-1 (normal monkey kidney epithelial cells); test: Clonogenic in vitro study, inhibition of cell colony formation, CV-1; format: cell-based; conditions: for IC50: Primates, Epithelial cell
Text: As noted above, one of the advantages of the invention is that the thiapyryliums described herein selectively attack the cancer cells as opposed to normal cells. Although knowledge of the mechanism is not essential to the practice of the invention, it is believed this occurs through the preferential inhibition of ATP synthesis in the mitochondria of the cancer cells. Such selectivity is further shown in clonogenic in vitro studies carried out in conventional fashion. That is, cell cultures of CX-1 (human colon carcinoma) and CV-1 (normal monkey kidney epithelial cells) are prepared and treated at various concentrations, in the conventional manner, and the concentration of the dye that inhibits 50% of the cell colonies formation is denoted as IC50. This IC50 value is compared for both the CX-1 and CV-1. That is, the CV-1 value is divided by the value for CX-1. If the value is 10 μg/ml for CV-1, and […] for CX-1, then the dye is 10 times as effective in killing off the colon carcinoma cells, compared to the monkey epithelial cells. This is expressed as a selectivity "S" of 10. That is, in order to inhibit 50% of the normal cells, the drug requires ten times the concentration needed for inhibiting 50% of the cancer cells.
("Retest" in this table refers to a repeat of the clonogenic test on either an entirely different preparation of the compound, or on a different recrystallization of the same preparation. The slight variance in selectivity can be accounted for, it is speculated, by a different moisture content in the preparation or crystallization of the compounds.)

[4] = tested on: human melanoma cell line, LOX; test: Melanoma test using nude mice protocol (LOX xenograft survival); format: in vivo, human melanoma cells in athymic Swiss nu/nu mice; conditions: male nude mice, 5 mg/kg IP daily for five days, then three times per week
Text: (§1) FIGS. 1-6 are survival plots of cancer-bearing mice treated with the dyes of this invention, compared to a control group of such mice that were untreated. In these plots, "% survival" means the % of the total group (treated "T" or control "C") still surviving on the day in question. The 50% data point is selected for the T/C calculation, as being the point that is statistically meaningful.
(§2) Effectiveness against human cancer can be inferred by tests in the nude mouse-human xenograft model, hereinafter "nude mice protocol". […] 899-903, especially p. 889 (April 1985).
(§3) Nude mice, that is, those deficient in thymic functions, bred and maintained in pathogen-free conditions [See J. Natl. Cancer Inst. 51: 615-619 (1973)] were used in in vivo experiments. For each experiment, nude mice from the same litter and of the same sex which were over 3 months old and weighed at least 25 g were injected or implanted with cancer cells.
A human melanoma cell line, LOX, was used that grows rapidly when inoculated into the peritoneal cavity of athymic mice. […] Cells were then scored for viability with trypan blue and 5 million viable cells made up in 0.1 ml of Dulbecco modified Eagles' medium (DME) were injected intraperitoneally into a group of male athymic Swiss nu/nu mice. […]

[5] = tested on: human ovarian carcinoma line OVCAR-3; test: Ovarian carcinoma (OVCAR-3) using nude mice protocol (survival); format: in vivo, human ovarian carcinoma cells in nude mice; conditions: OVCAR-3, female nude mice, 5 mg/kg IP daily for five days, then twice weekly
Text: as §1, §2, §3
Ex. 1 and 2 were repeated, except they were administered to female nude mice xenografted with human ovarian carcinoma line OVCAR-3. Ten mice were selected for treatment with the thiapyrylium, in an amount of 5 mg/kg administered IP 1 day after the cancer cells were injected. This was repeated as follows: daily for five days followed by twice weekly (usually on Tuesday and Thursday). Ten mice were used as the control group and were injected with 0.25 ml of 5% dextrose in water.

[6] = tested on: MB49 tumor cells; test: Treatment of mouse bladder carcinoma (MB49) using thiapyrylium dyes administered IP (survival); format: in vivo; conditions: MB49, male BDF1 mice, 2 mg/kg IP daily for 5 days, then twice a week
Text: as §1
MB49 tumor cells, that is, mouse carcinoma cells induced by the carcinogen 7,12-dimethyl benz[a]anthracene, were injected intraperitoneally into normal male BDF1 mice (2×10^6 /mouse). Each drug treated group and control group had ten mice. Except for the control group, one of the thiapyrylium dyes of Ex. 1 and Ex. 2 was administered intraperitoneally starting the following day in the following manner: 2 mg/kg daily for 5 days followed by 2 mg/kg twice a week. The control group of 10 mice was treated with 0.25 ml of 5% dextrose in water and was the same control group used for both Ex. 5-6. The survival rate was calculated as in the previous examples. The results were that the dye of Ex. 1 produced a T/C of 227%, and the dye of Ex. 2 produced a T/C of 263%, as shown further in FIGS. 5-6.

[7] = clonogenic, CX-1 human colon carcinoma
[8] = clonogenic, CV-1 normal monkey kidney epithelial cells
[9] = retest: different preparation or recrystallization, CX-1
[10] = retest: different preparation or recrystallization, CV-1

Question: For `COc1cccc2c1C(=O)c1c(O)c3c(c(O)c1C2=O)C[C@@](O)(C(=O)CO)C[C@@H]3O[C@H]1C[C@H](N)[C@H](O)[C@H](C)O1` [Adriamycin], which effective response rate [1] is on record?
Answer: 14.5%

Question: With `CN(C)c1ccc(-c2cc(-c3ccccn3)[s+]c(-c3cccs3)c2)cc1` [T-1, 4-(4-dimethylaminophenyl)-2-(2-pyridyl)-6-(2-thienyl)thiapyrylium chloride] as the compound, how does the Selectivity [2] read?
Answer: 200

Question: And the IC50 [2, 7]?
Answer: 0.01 µg/mL

Question: And the “CV-1 (normal cells IC50 value)” value [3, 8]?
Answer: 2.0 µg/mL

Question: What about the “T/C (test drug versus control, calculated based on 50% survival day)” value [4] of the same compound?
Answer: 200%

Question: And the T/C [5]?
Answer: 321%

Question: And the T/C [6]?
Answer: 263%

Question: For `CN(C)c1ccc(-c2cc(-c3ccccc3)[s+]c(-c3ccccn3)c2)cc1` [T-2, 4-(4-dimethylaminophenyl)-2-phenyl-6-(2-pyridyl)thiapyrylium chloride], which Selectivity [2] is on record?
Answer: 167

Question: And the IC50 [2, 7]?
Answer: 0.018 µg/mL

Question: And the “CX-1 (colon carcinoma cells IC50 value)” value [2, 9]?
Answer: 0.005 µg/mL

Question: What about the Selectivity ([2]; retest) of the same compound?
Answer: 60

Question: And the IC50 [3, 8]?
Answer: 3 µg/mL

Question: What about the “T/C (test drug versus control, calculated based on 50% survival day)” value [4] of the same compound?
Answer: 228%

Question: What about the T/C [5] of the same compound?
Answer: 340%

Question: And the T/C [6]?
Answer: 227%

Question: For `CN(C)c1ccc(-c2cc(-c3ccccc3)[s+]c(-c3ccccn3)c2)cc1` [T-3, 4-(4-dimethylaminophenyl)-2-phenyl-6-(2-pyridyl)thiapyrylium perchlorate], which Selectivity [2] is on record?
Answer: 167

Question: And the “CX-1 (colon carcinoma cells IC50 value)” value [2, 7]?
Answer: 0.015 µg/mL

Question: And the “CX-1 (colon carcinoma cells IC50 value)” value [2, 9]?
Answer: 0.025 µg/mL

Question: And the Selectivity ([2]; retest)?
Answer: 100

Question: And the “CV-1 (normal cells IC50 value)” value [3, 8]?
Answer: 2.5 µg/mL

Question: What about the “CV-1 (normal cells IC50 value)” value [3, 10] of the same compound?
Answer: 2.5 µg/mL

Question: For `CN(C)c1ccc(-c2cc(-c3ccccn3)[s+]c(-c3cccs3)c2)cc1` [T-4, 4-(4-dimethylaminophenyl)-2-(2-pyridyl)-6-(2-thienyl)thiapyrylium perchlorate], which Selectivity [2] is on record?
Answer: 333

Question: And the IC50 [2, 9]?
Answer: 0.015 µg/mL

Question: What about the Selectivity ([2]; retest) of the same compound?
Answer: 100

Question: What about the IC50 [3, 10] of the same compound?
Answer: 1.5 µg/mL

Question: What about the “CV-1 (normal cells IC50 value)” value [3, 8] of the same compound?
Answer: 5.0 µg/mL

Question: For `CN(C)c1ccc(-c2cc(-c3ccccc3)[s+]c(-c3ccccc3)c2)cc1` [compound 2, reference compound], which “S (selectivity value)” value [2] is on record?
Answer: 5.0

Question: Which “S (selectivity value)” value [2] does the source give for `CN(C)c1ccc(-c2cc(-c3cccs3)[s+]c(-c3cccs3)c2)cc1` [compound 3, 2,6-Bis(2-thienyl)-4-(4-dimethylaminophenyl)thiapyrylium perchlorate, reference compound] here?
Answer: 1.0

Question: For `CN(C)c1ccc(-c2cc(-c3ccncc3)[s+]c(-c3cccs3)c2)cc1` [compound 4, 4-(4-Dimethylaminophenyl)-2-(4-pyridyl)-6-(2-thienyl)thiapyrylium perchlorate, reference compound], which “S (selectivity value)” value [2] is on record?
Answer: 3.3

Question: For `CN(C)c1ccc(-c2cc(-c3ccco3)[s+]c(-c3cccs3)c2)cc1` [compound 5, 4-(4-Dimethylaminophenyl)-2-(2-furyl)-6-(2-thienyl)thiapyrylium perchlorate, reference compound], which “S (selectivity value)” value [2] is on record?
Answer: 13.5

Question: Which “S (selectivity value)” value [2] does the source give for `CN(C)c1ccc(-c2cc(-c3ccccc3)[s+]c(-c3ccc(N(C)C)cc3)c2)cc1` [compound 6, reference compound] here?
Answer: 10.0

Question: With `Cc1cc(N(CCCl)CCCl)ccc1-c1cc(-c2ccccc2)[s+]c(-c2ccccc2)c1` [compound 7, reference compound] as the compound, how does the “S (selectivity value)” value [2] read?
Answer: < 7.5

Question: For `c1ccc(CN(Cc2ccccc2)c2ccc(-c3cc(-c4ccccc4)[s+]c(-c4ccccc4)c3)cc2)cc1` [compound 8, reference compound], which “S (selectivity value)” value [2] is on record?
Answer: < 7.5

Question: With `ClCCN(CCCl)c1ccc(-c2cc(-c3ccccc3)[s+]c(-c3ccccc3)c2)cc1` [compound 9, reference compound] as the compound, how does the “S (selectivity value)” value [2] read?
Answer: < 5.0
